Data: patent US9133206B2, “Benzodiazepine and pyridodiazepine derivatives” (AbbVie Inc., priority 2010, dated 2015)

Legend:
[1] = test system: mouse model of multiple sclerosis; conditions: in vivo administration; cited from earlier work
[2] = test system: SK-N-SH human neuroblastoma cells; experiment: Serum Deprivation/JC-1 Mitochondrial Membrane Potential (MMP) Assay; format: cell-based; conditions: Homo sapiens; for activation at 3 µM: single dose 3 μM, JC-1 ratio normalized to peak value for 10 μM dimebolin (n=2-4), read-out: JC-1 max % (@ 3 μM); for activation at 3 µM / Emax: serum deprivation; for EC50 / Emax: SK-N-SH; for EC50: 18 h, serum deprivation ~18 hours, JC-1 ratio normalized to peak value for 10 μM dimebolin, single curve fit to mean data of n=2-3; for Emax: percent maximal intensity in JC-1 ratio normalized to peak value for 10 μM dimebolin, read-out: JC-1 max %
Outline: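 SK-N-SH cells serum-deprived ~18 h with compound, then stained with JC-1 for 40 min at 37 °C; red (560/595 nm) to green (485/535 nm) ratio reports membrane potential. Response normalized to peak from 10 μM dimebolin; EC50 from fit to mean of n=2–3, or single-dose 3 μM; DMSO ≤1%.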

[3] = test system: patients with mild-to-moderate Alzheimer's disease; conditions: 20 mg three times a day (60 mg/day); cited from earlier work

| Structure (SMILES) | activation at 3 µM [2] [%] | also measured |
| --- | --- | --- |
| O=C1C=C(c2ccccc2)C(=O)N1c1cccc(Cl)c1 [1-(3-chlorophenyl)-3-phenyl-pyrrole-2,5-dione] |  | development of the disease [1]: significantly prevented the development of the disease |
| NCCc1cn(C(=O)N2Cc3ccccc3N3CCN(Cc4ccccc4)CC3C2)cn1 (centres unmarked) [Example 154, [4-(2-aminoethyl)-1H-imidazol-1-yl](3-benzyl-1,2,3,4,4a,5-hexahydropyrazino[1,2-a][1,4]benzodiazepin-6(7H)-yl)methanone] | 49 |  |
| O=C(NCc1ccncc1)N1Cc2ccccc2N2CCN(Cc3ccccc3)CC2C1 (centres unmarked) [Example 155, 3-benzyl-N-(pyridin-4-ylmethyl)-1,2,3,4,4a,5-hexahydropyrazino[1,2-a][1,4]benzodiazepine-6(7H)-carboxamide] | 75 |  |
| Cc1ccc(CNC(=O)N2Cc3ccccc3N3CCN(Cc4ccccc4)CC3C2)o1 (centres unmarked) [Example 156, 3-benzyl-N-[(5-methyl-2-furyl)methyl]-1,2,3,4,4a,5-hexahydropyrazino[1,2-a][1,4]benzodiazepine-6(7H)-carboxamide] |  | EC50 [2]: 2400 nM; Emax [2]: 152% |
| CCN(CCOC)C(=O)N1Cc2ccccc2N2CCN(Cc3ccccc3)CC2C1 (centres unmarked) [Example 157, 3-benzyl-N-ethyl-N-(2-methoxyethyl)-1,2,3,4,4a,5-hexahydropyrazino[1,2-a][1,4]benzodiazepine-6(7H)-carboxamide] | 264 |  |
| CCN(CC)C(=O)N1Cc2ccccc2N2CCN(Cc3ccccc3)CC2C1 (centres unmarked) [Example 158, 3-benzyl-N,N-diethyl-1,2,3,4,4a,5-hexahydropyrazino[1,2-a][1,4]benzodiazepine-6(7H)-carboxamide] |  | EC50 [2]: 1020 nM; Emax [2]: 181% |
| O=C(Nc1nccs1)N1Cc2ccccc2N2CCN(Cc3ccccc3)CC2C1 (centres unmarked) [Example 159, 3-benzyl-N-(1,3-thiazol-2-yl)-1,2,3,4,4a,5-hexahydropyrazino[1,2-a][1,4]benzodiazepine-6(7H)-carboxamide] | 64 |  |
| O=C(NCC1CC1)N1Cc2ccccc2N2CCN(Cc3ccccc3)CC2C1 (centres unmarked) [Example 160, 3-benzyl-N-(cyclopropylmethyl)-1,2,3,4,4a,5-hexahydropyrazino[1,2-a][1,4]benzodiazepine-6(7H)-carboxamide] |  | EC50 [2]: 645 nM; Emax [2]: 245% |
| CC(C)N1CCN(C(=O)N2Cc3ccccc3N3CCN(Cc4ccccc4)CC3C2)CC1 (centres unmarked) [Example 161, (3-benzyl-1,2,3,4,4a,5-hexahydropyrazino[1,2-a][1,4]benzodiazepin-6(7H)-yl)(4-isopropylpiperazin-1-yl)methanone] |  | EC50 [2]: 3180 nM; Emax [2]: 218% |
| CC(C)CNC(=O)N1Cc2ccccc2N2CCN(Cc3ccccc3)CC2C1 (centres unmarked) [Example 162, 3-benzyl-N-isobutyl-1,2,3,4,4a,5-hexahydropyrazino[1,2-a][1,4]benzodiazepine-6(7H)-carboxamide] | 194 |  |
| O=C(NCc1cccnc1)N1Cc2ccccc2N2CCN(Cc3ccccc3)CC2C1 (centres unmarked) [Example 163, 3-benzyl-N-(pyridin-3-ylmethyl)-1,2,3,4,4a,5-hexahydropyrazino[1,2-a][1,4]benzodiazepine-6(7H)-carboxamide] | 183 |  |
| CN(C)CCCNC(=O)N1Cc2ccccc2N2CCN(Cc3ccccc3)CC2C1 (centres unmarked) [Example 164, 3-benzyl-N-[3-(dimethylamino)propyl]-1,2,3,4,4a,5-hexahydropyrazino[1,2-a][1,4]benzodiazepine-6(7H)-carboxamide] | 93 |  |
| CCCCN(CC#N)C(=O)N1Cc2ccccc2N2CCN(Cc3ccccc3)CC2C1 (centres unmarked) [Example 165, 3-benzyl-N-butyl-N-(cyanomethyl)-1,2,3,4,4a,5-hexahydropyrazino[1,2-a][1,4]benzodiazepine-6(7H)-carboxamide] | 251 |  |
| COCCCNC(=O)N1Cc2ccccc2N2CCN(Cc3ccccc3)CC2C1 (centres unmarked) [Example 166, 3-benzyl-N-(3-methoxypropyl)-1,2,3,4,4a,5-hexahydropyrazino[1,2-a][1,4]benzodiazepine-6(7H)-carboxamide] |  | EC50 [2]: 765 nM; Emax [2]: 181% |
| COCCNC(=O)N1Cc2ccccc2N2CCN(Cc3ccccc3)CC2C1 (centres unmarked) [Example 167, 3-benzyl-N-(2-methoxyethyl)-1,2,3,4,4a,5-hexahydropyrazino[1,2-a][1,4]benzodiazepine-6(7H)-carboxamide] | 63 |  |
| O=C(NCc1ccccn1)N1Cc2ccccc2N2CCN(Cc3ccccc3)CC2C1 (centres unmarked) [Example 168, 3-benzyl-N-(pyridin-2-ylmethyl)-1,2,3,4,4a,5-hexahydropyrazino[1,2-a][1,4]benzodiazepine-6(7H)-carboxamide] | 259 |  |
| O=C(NC1CCC1)N1Cc2ccccc2N2CCN(Cc3ccccc3)CC2C1 (centres unmarked) [Example 169, 3-benzyl-N-cyclobutyl-1,2,3,4,4a,5-hexahydropyrazino[1,2-a][1,4]benzodiazepine-6(7H)-carboxamide] |  | EC50 [2]: 816 nM; Emax [2]: 173% |
| CCCN(C)C(=O)N1Cc2ccccc2N2CCN(Cc3ccccc3)CC2C1 (centres unmarked) [Example 170, 3-benzyl-N-methyl-N-propyl-1,2,3,4,4a,5-hexahydropyrazino[1,2-a][1,4]benzodiazepine-6(7H)-carboxamide] | 273 |  |
| O=C(N1CCCCC1)N1Cc2ccccc2N2CCN(Cc3ccccc3)CC2C1 (centres unmarked) [Example 171, (3-benzyl-1,2,3,4,4a,5-hexahydropyrazino[1,2-a][1,4]benzodiazepin-6(7H)-yl)(piperidin-1-yl)methanone] |  | EC50 [2]: 2450 nM; Emax [2]: 251% |
| O=C1C2CNCCN2c2ccccc2CN1CC1CC1 (centres unmarked) [Example 172, 6-(cyclopropylmethyl)-2,3,4,4a,6,7-hexahydropyrazino[1,2-a][1,4]benzodiazepin-5(1H)-one] | 0 |  |
| CN1CCN2c3ccccc3CN(C3CCN(C(=O)c4ccccc4)CC3)CC2C1 (centres unmarked) [Example 173, [4-(3-methyl-1,2,3,4,4a,5-hexahydropyrazino[1,2-a][1,4]benzodiazepin-6(7H)-yl)piperidin-1-yl](phenyl)methanone] | 68 |  |
| CN1CCN2c3ccccc3CN(C(=O)c3ccccc3Cl)CC2C1 (centres unmarked) [Example 174, (2-chlorophenyl)(3-methyl-1,2,3,4,4a,5-hexahydropyrazino[1,2-a][1,4]benzodiazepin-6(7H)-yl)methanone] | 41 |  |
| CN1CCN2c3ccccc3CN(C(=O)c3cccc(Cl)c3)CC2C1 (centres unmarked) [Example 175, (3-chlorophenyl)(3-methyl-1,2,3,4,4a,5-hexahydropyrazino[1,2-a][1,4]benzodiazepin-6(7H)-yl)methanone] | 40 |  |
| CN1CCN2c3ccccc3CN(C(=O)c3ccc(Cl)cc3)CC2C1 (centres unmarked) [Example 176, (4-chlorophenyl)(3-methyl-1,2,3,4,4a,5-hexahydropyrazino[1,2-a][1,4]benzodiazepin-6(7H)-yl)methanone] | 40 |  |
| Cc1ccc2c(c1)c1c(n2CCc2ccc(C)nc2)CCN(C)C1 [dimebolin] |  | clinical course of disease (ADAS-Cog, improvement over baseline) [3]: significant improvement in the clinical course of disease |
